Blank lines part the entries; values can stand above or below the compound they belong to.
What was measured:
human LPA1 = biological target: T1, human LPA1 (Homo sapiens, UniProt Q92633); experiment: In vitro LPA1 calcium flux antagonist assay; assay type: cell-based; details: CHO-K1 cells overexpressing human LPA1 and G15a, LPA challenge at EC80, FLIPR calcium mobilization
T1 construct: expressed in transfected cells; host or cells: CHO-K1
Experimental: CHO-K1 cells overexpressing human LPA1 and G15a were seeded at a total volume of 20 μL (15000 cells/well) into Matrigel pre-coated 384-well plates (corning −3764) and incubated at 37° C. After overnight incubation, the cells were serum starved for 4 h. Assays were performed in dye loading buffer containing 1×Fluo-8 AM (AAT Bioquest, 21080) and 2.5 mM probenecid (Thermo Fisher, 36400) in HBSS/20 mM Hepes. After cell starvation, the medium was replaced with 20 μL of dye loading buffer and incubated at 37° C. for 30 min. Then 5 μL of 5× compound titrated in dye loading buffer was added to the cells and incubated for 30 min followed by LPA challenge at EC80. Calcium mobilization was measured on a FLIPR Tetra (MDS). For LPA EC80 determination, starved cells were incubated with 20 μL of dye loading buffer for 1 h, then 5 μL of 5×LPA titrated in dye loading buffer was added to the cells. Calcium signals induced by LPA was monitors on a FLIPR.
Percentage inhibition is calculated using the following formula: […]

[1] = Pharmacokinetics measurements in rats; assay type: in vivo; details: SD male rats, plasma; for Cl_obs / AUC(0-t) / Cmax / Tmax: mean; for bioavailability / AUC(0-t) / Cmax / Tmax: rat; for bioavailability: PO 5 mg/kg vs IV 1 mg/kg
Experimental: The PK properties of selected compounds were measured in SD Male rats following single oral (5 mg/kg) and Intravenous Administration (1 mg/kg).
Compounds 103 and 104 were prepared in a 1 mg/mL solution of 10% Solutol HS15 and 90% saline for oral administrations at 5 mL/kg and 0.2 mg/mL solution of 10% Solutol HS15 and 90% saline for intravenous administrations at 1 mL/kg, respectively, and administered to 3 rats per group. After dosing, blood collection was performed by Jugular vein sampling (by cannula) at 0.25, 0.5, 1, 2, 4, 6, 8, 24 h, and 0.083, 0.25, 0.5, 1, 2, 4, 8, 24 h, respectively, followed by centrifugation to obtain plasma. Samples were stored frozen at −80° C. prior to compound extraction and LC-MS/MS analysis. Pharmacokinetic parameters of compounds 103 and 104 in rats were calculated by standard noncompartmental modeling from the systemic plasma concentration-time profile.

[2] = Pharmacokinetics measurements in mice; assay type: in vivo; details: mouse; CD1 female mice, single oral 5 mg/kg, plasma, mean
Experimental: The PK properties of selected compounds were measured in CD1 female mice following single oral (5 mg/kg) administration.
Compounds 103 and 104 were prepared in a 1 mg/mL solution of 10% Solutol HS15 and 90%, saline for oral administrations at 5 mL/kg, respectively, and administered to 3 mice/3 groups. After dosing, blood collection was performed by dorsal metatarsal vein sampling at 0.25, 0.5, 1, 2, 4, 6, 8, 24 h, followed by centrifugation to obtain plasma. Samples were stored frozen at −80° C. prior to compound extraction and LC-MS/MS analysis. Pharmacokinetic parameters of compounds 103 and 104 in mice were calculated by standard noncompartmental modeling from the systemic plasma concentration-time profile.

T1 sequence (Q92633 whole entry): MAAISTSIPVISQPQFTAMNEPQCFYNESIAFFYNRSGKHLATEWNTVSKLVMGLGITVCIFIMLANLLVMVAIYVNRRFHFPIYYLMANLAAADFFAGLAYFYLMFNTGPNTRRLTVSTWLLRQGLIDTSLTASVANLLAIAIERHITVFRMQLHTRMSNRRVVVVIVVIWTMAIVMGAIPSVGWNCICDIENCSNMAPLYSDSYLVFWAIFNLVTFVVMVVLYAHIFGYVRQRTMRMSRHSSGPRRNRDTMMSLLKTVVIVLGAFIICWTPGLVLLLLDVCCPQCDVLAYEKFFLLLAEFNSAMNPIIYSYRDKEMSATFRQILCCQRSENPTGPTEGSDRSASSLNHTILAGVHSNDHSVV

IC50 (human LPA1): > 100 nM
Structure (SMILES): COc1cc([C@@H](O)[C@H](Cc2cc3c(N(C)C)ccc(C(=O)O)n3n2)OC2CCCC2)cc(OC)c1C [Compound 110]

IC50 (human LPA1): 10 to 100 nM
Structure (SMILES): CCCc1sc(C[C@H](OC2CCCC2)[C@H](O)c2cc(OC)c(C(C)=O)c(OC)c2)nc1C(C)C(=O)O (some centres unmarked) [Compound 114]

IC50 (human LPA1): 10 to 100 nM
Structure (SMILES): CCOc1cc(C(=O)O)c2nc(C[C@H](OC3CCCC3)[C@H](O)c3cc(OC)cc(OC)c3)sc2c1 [Compound 111]

IC50 (human LPA1): 10 to 100 nM
Structure (SMILES): CCOc1cc(C(=O)O)c2nc(C[C@H](OC3CCCC3)[C@H](O)c3ccc(C(F)F)c(OC)c3)sc2c1 [Compound 112]

IC50 (human LPA1): < 10 nM
Structure (SMILES): CCOc1ccc(C(=O)O)c2nc(C[C@H](OC3CCCC3)[C@H](O)c3cc(OC)c(C)c(OC)c3)sc12 [Compound 109]

IC50 (human LPA1): 10 to 100 nM
Structure (SMILES): CCOc1ccc(C(=O)O)n2nc(C[C@H](OC3CCCC3)[C@H](O)c3cc(OC)c(C)c(OC)c3)cc12 [Compound 113]

Further lines, the compound ahead of its results:

Structure (SMILES): CNc1ccc(C(=O)O)n2nc(C[C@H](OC3CCCC3)[C@H](O)c3cc(OC)c(C)c(OC)c3)cc12 [Compound 108, 2-((2S,3R)-2-(cyclopentyloxy)-3-(3,5-dimethoxy-4-methylphenyl)-3-hydroxypropyl)-4-(methylamino)pyrazolo[1,5-a]pyridine-7-carboxylic acid]
IC50 (human LPA1): 10 to 100 nM

Structure (SMILES): CCOc1cc(C(=O)O)c2nc(C[C@H](OC3CCCC3)[C@H](O)c3ccc(C)c(OC)c3)sc2c1 [Compound 101, 2-((2S,3R)-2-(cyclopentyloxy)-3-hydroxy-3-(3-methoxy-4-methylphenyl)propyl)-6-ethoxybenzo[d]thiazole-4-carboxylic acid]
IC50 (human LPA1): < 10 nM

Structure (SMILES): COc1cc([C@@H](O)[C@H](Cc2nc3c(C(=O)O)ccc(OC)c3s2)OC2CCCC2)cc(OC)c1C [Compound 107, 2-((2S,3R)-2-(cyclopentyloxy)-3-(3,5-dimethoxy-4-methylphenyl)-3-hydroxypropyl)-7-methoxybenzo[d]thiazole-4-carboxylic acid]
IC50 (human LPA1): < 10 nM

Structure (SMILES): COCc1cc(C(=O)O)c2nc(C[C@H](OC3CCCC3)[C@H](O)c3cc(OC)c(C)c(OC)c3)sc2c1 [Compound 104, 2-((2S,3R)-2-(cyclopentyloxy)-3-(3,5-dimethoxy-4-methylphenyl)-3-hydroxypropyl)-6-(methoxymethyl)benzo[d]thiazole-4-carboxylic acid]
Cl_obs ([1]; IV 1 mg/kg): 8.8 mL/min/kg
bioavailability [1]: 30.3%
AUC(0-t) ([1]; IV 1 mg/kg): 1900 ng·h/mL
AUC(0-t) ([1]; PO 5 mg/kg): 2890 ng·h/mL
Cmax ([1]; PO 5 mg/kg): 1520 ng/mL
Tmax ([1]; PO 5 mg/kg): 15 min
AUC(0-t) [2]: 6950 ng·h/mL
Cmax [2]: 3840 ng/mL
Tmax [2]: 15 min
IC50 (human LPA1): < 10 nM

Structure (SMILES): CNc1cc(C(=O)O)c2nc(C[C@H](OC3CCCC3)[C@H](O)c3cc(OC)c(C)c(OC)c3)sc2c1 [Compound 105, 2-((2S,3R)-2-(cyclopentyloxy)-3-(3,5-dimethoxy-4-methylphenyl)-3-hydroxypropyl)-6-(methylamino)benzo[d]thiazole-4-carboxylic acid]
IC50 (human LPA1): < 10 nM

Structure (SMILES): COc1cc([C@@H](O)[C@H](Cc2nc3c(C(=O)O)cc(N(C)C)cc3s2)OC2CCCC2)cc(OC)c1C [Compound 106, 2-((2S,3R)-2-(cyclopentyloxy)-3-(3,5-dimethoxy-4-methylphenyl)-3-hydroxypropyl)-6-(dimethylamino)benzo[d]thiazole-4-carboxylic acid]
IC50 (human LPA1): < 10 nM

Structure (SMILES): COc1cc([C@@H](O)[C@H](Cc2nc3c(C(=O)O)cc(CO)cc3s2)OC2CCCC2)cc(OC)c1C [Compound 103, 2-((2S,3R)-2-(cyclopentyloxy)-3-(3,5-dimethoxy-4-methylphenyl)-3-hydroxypropyl)-6-(hydroxymethyl)benzo[d]thiazole-4-carboxylic acid]
Cl_obs ([1]; IV 1 mg/kg): 12.9 mL/min/kg
bioavailability [1]: 27.3%
AUC(0-t) ([1]; IV 1 mg/kg): 1330 ng·h/mL
AUC(0-t) ([1]; PO 5 mg/kg): 1790 ng·h/mL
Cmax ([1]; PO 5 mg/kg): 1490 ng/mL
Tmax ([1]; PO 5 mg/kg): 15 min
AUC(0-t) [2]: 1640 ng·h/mL
Cmax [2]: 463 ng/mL
Tmax [2]: 30 min
IC50 (human LPA1): 10 to 100 nM

Structure (SMILES): COc1cc(C(=O)O)c2nc(C[C@H](OC3CCCC3)[C@H](O)c3ccc(C(F)F)c(OC)c3)sc2c1 [Compound 102, 2-((2S,3R)-2-(cyclopentyloxy)-3-(4-(difluoromethyl)-3-methoxyphenyl)-3-hydroxypropyl)-6-methoxybenzo[d]thiazole-4-carboxylic acid]
IC50 (human LPA1): < 10 nM

From patent publication US20240400562A1, “COMPOUNDS AND COMPOSITIONS FOR TREATING CONDITIONS ASSOCIATED WITH LPA RECEPTOR ACTIVITY” (LHOTSE, BIO, INC., priority 2021, published 2024)
